Tests used:
[1] = test system: Ewing's sarcoma cells with decreased levels of GSTM4; assay: MTT survival assay, wild-type (luc-RNAi) versus reduced GSTM4 (GSTM4-4-RNAi) Ewing's sarcoma cells; assay type: cell-based, human
Protocol: Chemotherapeutic sensitivity assays. The sensitivity of Ewing's sarcoma cells to chemotherapeutic agents was determined via the following experimental procedures. The indicated Ewing's sarcoma cells were seeded at a density of 2×10^4 cells/well in 24-well plates on day-0. On day 1, cells were incubated with varying concentrations of the indicated drug or drugs for 3 days. Subsequently, MTT cell proliferation assays were performed according to the manufacturer's instructions (Cayman Chemical Company, Ann Arbor, Mich.).
To test whether GSTM4 contributed to the chemotherapeutic resistance profile of Ewing's sarcoma, wild-type (luc-RNAi) and reduced GSTM4 (GSTM4-4-RNAi) cells were treated with increasing dosages of chemotherapeutic drugs and tested using MTT survival assays. The chemotherapeutic agents that were tested included etoposide, doxorubicin, and melphalan.
It was further determined that GSTM4 can alter the sensitivity of Ewing's sarcoma cells for fenretinide. […] It was further determined that decreased GSTM4 levels can change intracellular redox potential.
JS-K (provided by Dr. Paul Shami at the University of Utah) is a GST-activated prodrug with potent anti-neoplastic activity. A673, Ewing's sarcoma, cells with wild type (Luc-RNAi) or decreased GSTM4 levels (GSTM4-RNAi infected cells) were seeded in 24-well plates at a density of 2×10^4 cells/well. GSTM4 decreased cells or negative controls were treated with increasing concentrations of JS-K (0, 0.3125, 0.625, 1.25, 2.5, 5, or 10 μM) for 72 hours, followed by an MTT cell viability analysis.

A673 cells = assay: MTT cell proliferation assay in A673 Ewing's sarcoma cells; assay type: cell-based; details: Homo sapiens, 72 h, 3 days, read-out: IC50, inhibition of A673 cell proliferation
Protocol: The A673 cells were seeded at a density of 2×10^4 cells/well in 24-well plate on day 0.

Row | IC50 (A673 cells) | SMILES | Sensitivity of cells with decreased GSTM4 levels to the drug compared to control cells [1]
1 | – | COc1cccc2c1C(=O)c1c(O)c3c(c(O)c1C2=O)C[C@@](O)(C(=O)CO)C[C@@H]3O[C@H]1C[C@H](N)[C@H](O)[C@H](C)O1 [doxorubicin] | not sensitive
2 | – | CCOC(=O)N1CCN(/[N+]([O-])=N/Oc2ccc([N+](=O)[O-])cc2[N+](=O)[O-])CC1 [JS-K, O^2-(2,4-Dinitrophenyl)1-[(4-Ethoxycarbonyl)piperazin-1-yl]diazen-1-ium-1,2-diolate] | less sensitive
3 | 500 nM | O=[N+]([O-])c1ccc(SCCCCCCO)c2nonc12 [NBDHEX, 6-(7-nitro-2,1,3-benzoxadiazol-4-ylthio) hexanol] | –
4 | – | COc1cc([C@@H]2c3cc4c(cc3[C@@H](O[C@@H]3O[C@@H]5CO[C@@H](C)O[C@H]5[C@H](O)[C@H]3O)[C@H]3COC(=O)[C@H]23)OCO4)cc(OC)c1O [etoposide] | increase in sensitivity
5 | – | CC1=C(/C=C/C(C)=C/C=C/C(C)=C/C(=O)Nc2ccc(O)cc2)C(C)(C)CCC1 [fenretinide] | more sensitive

— US8557532B2, “Diagnosis and treatment of drug-resistant Ewing'S sarcoma” (The University of Utah Research Foundation, priority 2010, dated 2013)
